Assay results reported in patent US7670416B2, “Use of a combination of substances to prevent biofouling organisms” (I-Tech AB, priority 2005, dated 2010).

Experiments:
Ulva = assay: algae spore germination test (Ulva biofouling);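 note: ulva spores exposed to test compound, then compound removed and spores germinated in culture medium under fluorescent light, 16 h light and 8 h dark, for 7 days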
Procedure: (§1) The efficacy of algicides is usually tested by a spore germination test. Algae are collected from the field and grown in the laboratory. […] The water with test compound is then removed and culture medium is added. The spores are left to germinate under fluorescent lamps (50 μm-2s-1 (PAR)), 16 h light, 8 h darkness, for 7 days in a culture medium, which is changed once a day.
(§2) All the different brands are tested in combination with Catemine 1 for efficacy against both barnacles and algae with the two compounds together or separate. The assays that are be used are the cyprid settling rate assay and the algae germination test.

Barnacle cyprid larvae = assay: cyprid settling rate assay (barnacle biofouling); format: in vivo
Source text: The assays that are be used are the cyprid settling rate assay and the algae germination test.

Enteromorpha = assay: algae spore germination test (Enteromorpha biofouling); format: in vivo
Procedure: as §1, §2

algae = conditions: reference (6); target protein lacking within algae; cited from earlier work
barnacle cyprids = conditions: reference (6); cited from earlier work
[1] = 0.1 nM Catemine 1 alone (Table 2)
[2] = 0.1 nM Catemine 1 alone (Table 4)
[3] = 1 nM Catemine 1 alone (Table 2)
[4] = 1 nM Catemine 1 alone (Table 4)
[5] = 10 nM Catemine 1 alone (Table 2)
[6] = 10 nM Catemine 1 alone (Table 4)
[7] = 100 nM Catemine 1 alone (Table 2)
[8] = 100 nM Catemine 1 alone (Table 4)

Question: Which “Ulva biofouling (% survival)” value (Ulva; 0.1 μg/ml Dichlofluanid alone) does the source give for `CN(C)S(=O)(=O)N(SC(F)(Cl)Cl)c1ccccc1` [Dichlofluanid, N′-dimethyl-N-phenylsulphamide] here?
Answer: Its value is 100%.

Question: And the “Ulva biofouling (% survival)” value (Ulva; 1 μg/ml Dichlofluanid alone)?
Answer: Its value is 90%.

Question: What about the “Ulva biofouling (% survival)” value (Ulva; 10 μg/ml Dichlofluanid alone) of the same molecule?
Answer: Its value is 10%.

Question: What about the “Ulva biofouling (% survival)” value (Ulva; 100 μg/ml Dichlofluanid alone) of the same molecule?
Answer: The value was 0%.

Question: What about the “Barnacle biofouling (% settlement)” value (Barnacle cyprid larvae; 0.1 μg/ml Dichlofluanid alone) of the same molecule?
Answer: The value was 100%.

Question: What about the “Barnacle biofouling (% settlement)” value (Barnacle cyprid larvae; 1 μg/ml Dichlofluanid alone) of the same molecule?
Answer: The value was 50%.

Question: And the “Barnacle biofouling (% settlement)” value (Barnacle cyprid larvae; 10 μg/ml Dichlofluanid alone)?
Answer: The value was 25%.

Question: And the “Barnacle biofouling (% settlement)” value (Barnacle cyprid larvae; 100 μg/ml Dichlofluanid alone)?
Answer: Its value is 0%.

Question: What does the source list for `CCCCCCCCn1sc(Cl)c(Cl)c1=O` [SeaNine, 4,5-dichloro-2-n-octyl-3(2H)-isothiazolone]?
Answer: Ulva biofouling (% survival) (Ulva; 0.1 nM SeaNine alone): 100%; Ulva biofouling (% survival) (Ulva; 1 nM SeaNine alone): 50%; Ulva biofouling (% survival) (Ulva; 10 nM SeaNine alone): 10%; Ulva biofouling (% survival) (Ulva; 100 nM SeaNine alone): 0%; Barnacle biofouling (% settlement) (Barnacle cyprid larvae; 0.1 nM SeaNine alone): 100%; Barnacle biofouling (% settlement) (Barnacle cyprid larvae; 1 nM SeaNine alone): 50%; Barnacle biofouling (% settlement) (Barnacle cyprid larvae; 10 nM SeaNine alone): 10%; Barnacle biofouling (% settlement) (Barnacle cyprid larvae; 100 nM SeaNine alone): 0%

Question: With `Cc1cccc(C(C)c2c[nH]cn2)c1C` (racemic) [Catemine 1, (+/−)-4-[1-(2,3-dimethylphenyl)ethyl]-1H-imidazole] as the molecule, how does the “Enteromorpha biofouling (% survival)” value (Enteromorpha; 0.1 nM Catemine 1 alone) read?
Answer: Its value is 100%.

Question: And the “Enteromorpha biofouling (% survival)” value (Enteromorpha; 1 nM Catemine 1 alone)?
Answer: The value was 100%.

Question: What about the “Enteromorpha biofouling (% survival)” value (Enteromorpha; 10 nM Catemine 1 alone) of the same molecule?
Answer: Its value is 100%.

Question: And the “Enteromorpha biofouling (% survival)” value (Enteromorpha; 100 nM Catemine 1 alone)?
Answer: The value was 100%.

Question: What about the “effect of algal growth” value (algae) of the same molecule?
Answer: The value was “no effect”.

Question: What about the “action on barnacle cyprids” value (barnacle cyprids) of the same molecule?
Answer: Its value is “specific action”.

Question: And the “Ulva biofouling (% survival)” value (Ulva; 0.1 nM Catemine 1 alone)?
Answer: Its value is 100%.

Question: And the “Ulva biofouling (% survival)” value (Ulva; [1])?
Answer: The value was 100%.

Question: What about the “Ulva biofouling (% survival)” value (Ulva; [2]) of the same molecule?
Answer: Its value is 100%.

Question: And the “Ulva biofouling (% survival)” value (Ulva; 1 nM Catemine 1 alone)?
Answer: The value was 100%.

Question: And the “Ulva biofouling (% survival)” value (Ulva; [3])?
Answer: Its value is 100%.

Question: What about the “Ulva biofouling (% survival)” value (Ulva; [4]) of the same molecule?
Answer: The value was 100%.

Question: And the “Ulva biofouling (% survival)” value (Ulva; 10 nM Catemine 1 alone)?
Answer: Its value is 100%.

Question: What about the “Ulva biofouling (% survival)” value (Ulva; [5]) of the same molecule?
Answer: Its value is 100%.

Question: And the “Ulva biofouling (% survival)” value (Ulva; [6])?
Answer: Its value is 100%.

Question: And the “Ulva biofouling (% survival)” value (Ulva; 100 nM Catemine 1 alone)?
Answer: The value was 100%.

Question: What about the “Ulva biofouling (% survival)” value (Ulva; [7]) of the same molecule?
Answer: Its value is 100%.

Question: What about the “Ulva biofouling (% survival)” value (Ulva; [8]) of the same molecule?
Answer: Its value is 100%.

Question: And the “Barnacle biofouling (% settlement)” value (Barnacle cyprid larvae; 0.1 nM Catemine 1 alone)?
Answer: The value was 100%.

Question: And the “Barnacle biofouling (% settlement)” value (Barnacle cyprid larvae; [1])?
Answer: Its value is 100%.

Question: What about the “Barnacle biofouling (% settlement)” value (Barnacle cyprid larvae; 0.1 nM Catemine 1 alone (Table 3)) of the same molecule?
Answer: The value was 100%.

Question: What about the “Barnacle biofouling (% settlement)” value (Barnacle cyprid larvae; [2]) of the same molecule?
Answer: The value was 100%.

Question: What about the “Barnacle biofouling (% settlement)” value (Barnacle cyprid larvae; 1 nM Catemine 1 alone) of the same molecule?
Answer: The value was 10%.

Question: And the “Barnacle biofouling (% settlement)” value (Barnacle cyprid larvae; [3])?
Answer: The value was 10%.

Question: And the “Barnacle biofouling (% settlement)” value (Barnacle cyprid larvae; 1 nM Catemine 1 alone (Table 3))?
Answer: Its value is 10%.

Question: And the “Barnacle biofouling (% settlement)” value (Barnacle cyprid larvae; [4])?
Answer: The value was 10%.

Question: What about the “Barnacle biofouling (% settlement)” value (Barnacle cyprid larvae; 10 nM Catemine 1 alone) of the same molecule?
Answer: Its value is 0%.

Question: And the “Barnacle biofouling (% settlement)” value (Barnacle cyprid larvae; [5])?
Answer: Its value is 0%.

Question: What about the “Barnacle biofouling (% settlement)” value (Barnacle cyprid larvae; 10 nM Catemine 1 alone (Table 3)) of the same molecule?
Answer: Its value is 0%.

Question: What about the “Barnacle biofouling (% settlement)” value (Barnacle cyprid larvae; [6]) of the same molecule?
Answer: The value was 0%.

Question: And the “Barnacle biofouling (% settlement)” value (Barnacle cyprid larvae; 100 nM Catemine 1 alone)?
Answer: The value was 0%.

Question: What about the “Barnacle biofouling (% settlement)” value (Barnacle cyprid larvae; [7]) of the same molecule?
Answer: The value was 0%.

Question: What about the “Barnacle biofouling (% settlement)” value (Barnacle cyprid larvae; 100 nM Catemine 1 alone (Table 3)) of the same molecule?
Answer: Its value is 0%.

Question: And the “Barnacle biofouling (% settlement)” value (Barnacle cyprid larvae; [8])?
Answer: The value was 0%.

Question: Which “Ulva biofouling (% survival)” value (Ulva; 0.1 μM Diuron alone) does the source give for `CN(C)C(=O)Nc1ccc(Cl)c(Cl)c1` [Diuron, 3-(3,4-dichlorophenyl)-1,1-dimethylurea] here?
Answer: Its value is 100%.

Question: And the “Ulva biofouling (% survival)” value (Ulva; 1 μM Diuron alone)?
Answer: Its value is 90%.

Question: What about the “Ulva biofouling (% survival)” value (Ulva; 10 μM Diuron alone) of the same molecule?
Answer: Its value is 50%.

Question: And the “Ulva biofouling (% survival)” value (Ulva; 100 μM Diuron alone)?
Answer: Its value is 0%.

Question: What about the “Barnacle biofouling (% settlement)” value (Barnacle cyprid larvae; 0.1 μM Diuron alone) of the same molecule?
Answer: The value was 100%.

Question: And the “Barnacle biofouling (% settlement)” value (Barnacle cyprid larvae; 1 μM Diuron alone)?
Answer: Its value is 100%.

Question: What about the “Barnacle biofouling (% settlement)” value (Barnacle cyprid larvae; 10 μM Diuron alone) of the same molecule?
Answer: The value was 100%.

Question: What about the “Barnacle biofouling (% settlement)” value (Barnacle cyprid larvae; 100 μM Diuron alone) of the same molecule?
Answer: The value was 100%.

Question: Which “Enteromorpha biofouling (% survival)” value (Enteromorpha; 0.1 nM Irgarol alone) does the source give for `CSc1nc(NC2CC2)nc(NC(C)(C)C)n1` [Irgarol, 2-methylthio-4-tert-butylamino-6-cyclopropylamino-s-triziane] here?
Answer: Its value is 100%.

Question: What about the “Enteromorpha biofouling (% survival)” value (Enteromorpha; 1 nM Irgarol alone) of the same molecule?
Answer: The value was 100%.

Question: What about the “Enteromorpha biofouling (% survival)” value (Enteromorpha; 10 nM Irgarol alone) of the same molecule?
Answer: The value was 50%.

Question: And the “Enteromorpha biofouling (% survival)” value (Enteromorpha; 100 nM Irgarol alone)?
Answer: Its value is 0%.

Question: And the “Barnacle biofouling (% settlement)” value (Barnacle cyprid larvae; 0.1 nM Irgarol alone)?
Answer: The value was 100%.

Question: And the “Barnacle biofouling (% settlement)” value (Barnacle cyprid larvae; 1 nM Irgarol alone)?
Answer: Its value is 100%.

Question: What about the “Barnacle biofouling (% settlement)” value (Barnacle cyprid larvae; 10 nM Irgarol alone) of the same molecule?
Answer: The value was 100%.

Question: What about the “Barnacle biofouling (% settlement)” value (Barnacle cyprid larvae; 100 nM Irgarol alone) of the same molecule?
Answer: Its value is 100%.
